Experimental data from patent US20250144094A1 (Erasca, Inc., priority 2021, published 2025).

Molecular target: Recombinant human ULK1 (1-649) (Homo sapiens (Human), UniProt O75385)
Assay: ULK1 ADP Glo kinase activity assay, new method (ULKtide peptide substrate)
Settings: 25° C., 40 minutes, read-out: ULK1 biochemical IC50
Method in brief: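 Kinase activity was read as ADP production (ADP-Glo, luminescence 30 min after detection reagent) following a 40-min, 25 °C reaction of Sf9-expressed GST-ULK1 (1-649) with ULKtide substrate and ATP. Compounds ran as 12-point series starting at 10 μM; four-parameter curve fitting versus DMSO wells gave IC50.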

Recombinant human ULK1 (1-649), sequence (O75385 1-649): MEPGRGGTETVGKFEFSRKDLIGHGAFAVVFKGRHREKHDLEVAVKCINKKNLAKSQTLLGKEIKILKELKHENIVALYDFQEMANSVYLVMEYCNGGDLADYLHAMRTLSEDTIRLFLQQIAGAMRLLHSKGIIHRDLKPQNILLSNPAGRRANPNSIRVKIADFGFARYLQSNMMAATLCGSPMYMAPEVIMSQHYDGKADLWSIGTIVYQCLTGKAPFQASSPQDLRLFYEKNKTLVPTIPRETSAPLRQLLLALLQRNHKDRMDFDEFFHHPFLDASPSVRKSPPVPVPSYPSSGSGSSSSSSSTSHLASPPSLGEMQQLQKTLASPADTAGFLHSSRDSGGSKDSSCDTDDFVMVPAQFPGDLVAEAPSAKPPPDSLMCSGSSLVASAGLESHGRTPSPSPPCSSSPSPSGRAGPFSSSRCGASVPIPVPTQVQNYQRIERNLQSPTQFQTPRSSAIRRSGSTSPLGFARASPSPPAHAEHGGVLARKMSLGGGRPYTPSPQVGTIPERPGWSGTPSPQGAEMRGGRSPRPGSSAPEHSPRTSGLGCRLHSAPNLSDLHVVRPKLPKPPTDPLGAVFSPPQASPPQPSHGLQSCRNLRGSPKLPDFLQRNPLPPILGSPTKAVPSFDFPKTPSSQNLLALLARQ

| Compound | IC50 [nM] |
| --- | --- |
| Cc1c(Nc2ncc(C(F)(F)F)c(-c3cc4c(s3)C(=O)N(C)CCS4(=O)=O)n2)cnn1C1CCNCC1 [Example 176, 4-methyl-7-(2-((5-methyl-1-(piperidin-4-yl)-1H-pyrazol-4-yl)amino)-5-(trifluoromethyl)pyrimidin-4-yl)-3,4-dihydrothieno[2,3-f][1,4]thiazepin-5(2H)-one 1,1-dioxide] | > 100 |
| CSc1cc2c(cc1Nc1ncc(C(F)(F)F)c(-c3cc4c(s3)C(=O)N(C)CCS4(=O)=O)n1)CCN(C)C2 [Example 171, 4-methyl-7-(2-((2-methyl-7-(methylthio)-1,2,3,4-tetrahydroisoquinolin-6-yl)amino)-5-(trifluoromethyl)pyrimidin-4-yl)-3,4-dihydrothieno[2,3-f][1,4]thiazepin-5(2H)-one 1,1-dioxide] | ≤ 5 |
| CN1CCS(=O)(=O)c2cc(-c3nc(Nc4cc5c(cc4Cl)CNC5)ncc3C(F)(F)F)sc2C1=O [Example 164, 7-(2-((6-chloroisoindolin-5-yl)amino)-5-(trifluoromethyl)pyrimidin-4-yl)-4-methyl-3,4-dihydrothieno[2,3-f][1,4]thiazepin-5(2H)-one 1,1-dioxide] | ≤ 5 |
| Cc1ccc(C2CN(C)C2)cc1Nc1ncc(C(F)(F)F)c(-c2cc(S(C)(=O)=O)cs2)n1 [Example 137, N-(2-Methyl-5-(1-methylazetidin-3-yl)phenyl)-4-(4-(methylsulfonyl)thiophen-2-yl)-5-(trifluoromethyl)pyrimidin-2-amine] | > 100 |
| CCN1CCc2cc(Nc3ncc(C(F)(F)F)c(-c4cc5c(s4)C(=O)N(C4COC4)CCS5(=O)=O)n3)c(C3CC3)cc2C1 [Example 244, 7-(2-((7-cyclopropyl-2-ethyl-1,2,3,4-tetrahydroisoquinolin-6-yl)amino)-5-(trifluoromethyl)pyrimidin-4-yl)-4-(oxetan-3-yl)-3,4-dihydrothieno[2,3-f][1,4]thiazepin-5(2H)-one 1,1-dioxide] | ≤ 5 |
| O=C1c2sc(-c3nc(Nc4ccc(N5CCNCC5)cc4C4CC4)ncc3C(F)(F)F)cc2S(=O)(=O)CCN1C1CC1 [Example 239, 4-cyclopropyl-7-(2-((2-cyclopropyl-4-(piperazin-1-yl)phenyl)amino)-5-(trifluoromethyl)pyrimidin-4-yl)-3,4-dihydrothieno[2,3-f][1,4]thiazepin-5(2H)-one 1,1-dioxide] | ≤ 5 |
| CN1CCS(=O)(=O)c2cc(-c3nc(Nc4ccc(N5CCNCC5)cc4Cl)ncc3C(F)(F)F)sc2C1=O [Example 193, 7-(2-((2-chloro-4-(piperazin-1-yl)phenyl)amino)-5-(trifluoromethyl)pyrimidin-4-yl)-4-methyl-3,4-dihydrothieno[2,3-f][1,4]thiazepin-5(2H)-one 1,1-dioxide] | ≤ 5 |
| O=C1c2sc(-c3nc(Nc4ccc(N5CC6CC(C5)N6)cc4C4CC4)ncc3C(F)(F)F)cc2S(=O)(=O)CCN1C1CC1 [Example 338, 7-(2-((4-(3,6-diazabicyclo[3.1.1]heptan-3-yl)-2-cyclopropylphenyl)amino)-5-(trifluoromethyl)pyrimidin-4-yl)-4-cyclopropyl-3,4-dihydrothieno[2,3-f][1,4]thiazepin-5(2H)-one 1,1-dioxide] | ≤ 5 |
| CCc1cc(N2CCN(C)CC2)ccc1Nc1ncc(C(F)(F)F)c(-c2cc3c(s2)C(=O)N(C)CCS3(=O)=O)n1 [Example 196, 7-(2-((2-ethyl-4-(4-methylpiperazin-1-yl)phenyl)amino)-5-(trifluoromethyl)pyrimidin-4-yl)-4-methyl-3,4-dihydrothieno[2,3-f][1,4]thiazepin-5(2H)-one 1,1-dioxide] | ≤ 5 |
| CN1CCc2cc(Nc3ncc(C(F)(F)F)c(-c4cc5c(s4)C(=O)N(C4CCC4)CCS5(=O)=O)n3)c(Cl)cc2C1 [Example 168, 7-(2-((7-chloro-2-methyl-1,2,3,4-tetrahydroisoquinolin-6-yl)amino)-5-(trifluoromethyl)pyrimidin-4-yl)-4-cyclobutyl-3,4-dihydrothieno[2,3-f][1,4]thiazepin-5(2H)-one 1,1-dioxide] | ≤ 5 |
| CCc1cc2c(cc1Nc1ncc(C(F)(F)F)c(-c3cc4c(s3)C(=O)N(C)CCS4(=O)=O)n1)CNCC2 [Example 212, 7-(2-((6-ethyl-1,2,3,4-tetrahydroisoquinolin-7-yl)amino)-5-(trifluoromethyl)pyrimidin-4-yl)-4-methyl-3,4-dihydrothieno[2,3-f][1,4]thiazepin-5(2H)-one 1,1-dioxide] | ≤ 5 |
| O=C1c2sc(-c3nc(Nc4cc5c(cc4C4CC4)CCNC5)ncc3C(F)(F)F)cc2S(=O)(=O)CCN1CC(F)(F)F [Example 232, 7-(2-((6-cyclopropyl-1,2,3,4-tetrahydroisoquinolin-7-yl)amino)-5-(trifluoromethyl)pyrimidin-4-yl)-4-(2,2,2-trifluoroethyl)-3,4-dihydrothieno[2,3-f][1,4]thiazepin-5(2H)-one 1,1-dioxide] | ≤ 5 |
| O=C1NCCS(=O)(=O)c2cc(-c3nc(Nc4cc5c(cc4Cl)CNC5)ncc3C(F)(F)F)sc21 [Example 180, 7-(2-((6-chloroisoindolin-5-yl)amino)-5-(trifluoromethyl)pyrimidin-4-yl)-3,4-dihydrothieno[2,3-f][1,4]thiazepin-5(2H)-one 1,1-dioxide] | ≤ 5 |
| Cc1cnc(Nc2cc3c(cc2C2CC2)CNCC3)nc1-c1cc2c(s1)C(=O)N(C1CC1)CCS2(=O)=O [Example 260, 4-cyclopropyl-7-(2-((7-cyclopropyl-1,2,3,4-tetrahydroisoquinolin-6-yl)amino)-5-methylpyrimidin-4-yl)-3,4-dihydrothieno[2,3-f][1,4]thiazepin-5(2H)-one 1,1-dioxide] | ≤ 5 |
| CC(C)(O)CN1CCc2cc(Nc3ncc(C(F)(F)F)c(-c4cc5c(s4)C(=O)N(C4CC4)CCS5(=O)=O)n3)c(C3CC3)cc2C1 [Example 287, 4-cyclopropyl-7-(2-((7-cyclopropyl-2-(2-hydroxy-2-methylpropyl)-1,2,3,4-tetrahydroisoquinolin-6-yl)amino)-5-(trifluoromethyl)pyrimidin-4-yl)-3,4-dihydrothieno[2,3-f][1,4]thiazepin-5(2H)-one 1,1-dioxide] | ≤ 5 |

Results, then the compound that gave them:

| IC50 [nM] | Compound |
| --- | --- |
| ≤ 5 | O=C1c2sc(-c3nc(Nc4cc5c(cc4C4CC4)CN(CC4COC4)CC5)ncc3C(F)(F)F)cc2S(=O)(=O)CCN1C1CC1 [Example 234, 4-cyclopropyl-7-(2-((7-cyclopropyl-2-(oxetan-3-ylmethyl)-1,2,3,4-tetrahydroisoquinolin-6-yl)amino)-5-(trifluoromethyl)pyrimidin-4-yl)-3,4-dihydrothieno[2,3-f][1,4]thiazepin-5(2H)-one 1,1-dioxide] |
| ≤ 5 | CN1C[C@@H]2C[C@H]1CN2c1ccc(Nc2ncc(C(F)(F)F)c(-c3cc4c(s3)C(=O)N(C3CC3)CCS4(=O)=O)n2)c(C2CC2)c1 [Example 306, 4-Cyclopropyl-7-(2-((2-cyclopropyl-4-((1S,4S)-5-methyl-2,5-diazabicyclo[2.2.1]heptan-2-yl)phenyl)amino)-5-(trifluoromethyl)pyrimidin-4-yl)-3,4-dihydrothieno[2,3-f][1,4]thiazepin-5(2H)-one 1,1-dioxide] |
| ≤ 5 | O=C1c2sc(-c3nc(Nc4cc5c(nc4C4CC4)CNCC5)ncc3C(F)(F)F)cc2S(=O)(=O)CCN1C1COC1 [Example 304, 7-(2-((2-cyclopropyl-5,6,7,8-tetrahydro-1,7-naphthyridin-3-yl)amino)-5-(trifluoromethyl)pyrimidin-4-yl)-4-(oxetan-3-yl)-3,4-dihydrothieno[2,3-f][1,4]thiazepin-5(2H)-one 1,1-dioxide] |
| ≤ 5 | CC(C)c1cc2c(cc1Nc1ncc(C(F)(F)F)c(-c3cc4c(s3)C(=O)N(C3CC3)CCS4(=O)=O)n1)CCNC2 [Example 263, 4-cyclopropyl-7-(2-((7-isopropyl-1,2,3,4-tetrahydroisoquinolin-6-yl)amino)-5-(trifluoromethyl)pyrimidin-4-yl)-3,4-dihydrothieno[2,3-f][1,4]thiazepin-5(2H)-one 1,1-dioxide] |
| ≤ 5 | Cc1nn(CCN(C)C)cc1Nc1ncc(C(F)(F)F)c(-c2cc3c(s2)C(=O)N(C)CCS3(=O)=O)n1 [Example 187, 7-(2-((1-(2-(dimethylamino)ethyl)-3-methyl-1H-pyrazol-4-yl)amino)-5-(trifluoromethyl)pyrimidin-4-yl)-4-methyl-3,4-dihydrothieno[2,3-f][1,4]thiazepin-5(2H)-one 1,1-dioxide] |
| ≤ 5 | Cc1cc2c(cc1Nc1ncc(C(F)(F)F)c(-c3cc4c(s3)C(=O)N(C)CCS4(=O)=O)n1)CCN(CC1COC1)C2 [Example 216, 4-methyl-7-(2-((7-methyl-2-(oxetan-3-ylmethyl)-1,2,3,4-tetrahydroisoquinolin-6-yl)amino)-5-(trifluoromethyl)pyrimidin-4-yl)-3,4-dihydrothieno[2,3-f][1,4]thiazepin-5(2H)-one 1,1-dioxide] |
| ≤ 5 | CN1CCc2cc(Nc3ncc(C(F)(F)F)c(-c4cc5c(s4)C(=O)NCCS5(=O)=O)n3)c(F)cc2C1 [Example 139, 7-(2-((7-fluoro-2-methyl-1,2,3,4-tetrahydroisoquinolin-6-yl)amino)-5-(trifluoromethyl)pyrimidin-4-yl)-3,4-dihydrothieno[2,3-f][1,4]thiazepin-5(2H)-one 1,1-dioxide] |
| ≤ 5 | CCc1cc2c(cc1Nc1ncc(C(F)(F)F)c(-c3cc4c(s3)C(=O)N(C)CCS4(=O)=O)n1)CCN(CC1CC1)C2 [Example 223, 7-(2-((2-(cyclopropylmethyl)-7-ethyl-1,2,3,4-tetrahydroisoquinolin-6-yl)amino)-5-(trifluoromethyl)pyrimidin-4-yl)-4-methyl-3,4-dihydrothieno[2,3-f][1,4]thiazepin-5(2H)-one 1,1-dioxide] |
| ≤ 5 | CCN1CCc2cc(Nc3ncc(C(F)(F)F)c(-c4cc5c(s4)C(=O)N(C4CC4)CCS5(=O)=O)n3)c(C3CC3)cc2C1 [Example 233, 4-cyclopropyl-7-(2-((7-cyclopropyl-2-ethyl-1,2,3,4-tetrahydroisoquinolin-6-yl)amino)-5-(trifluoromethyl)pyrimidin-4-yl)-3,4-dihydrothieno[2,3-f][1,4]thiazepin-5(2H)-one 1,1-dioxide] |
